# Laboratory results taken from US12024543B2, “Micropeptides and use of same for modulating gene expression” (UNIVERSITE PAUL SABATIER TOULOUSE III, priority 2013, dated 2024).
# Tested on: HsmiR155
# Assay: HeLa cells transfected to overexpress HsmiPEP155, relative expression of Pre-miR155
# Format: cell-based, Homo sapiens
# Details: HeLa cells overexpressing HsmiPEP155
# Source text: The DNA fragments of interest (HsmiPEP155 and the mutated miPEP) were synthesized or amplified by PCR using specific primers, and then cloned using the enzymes XhoI and NotI into a pUAS plasmid permitting their overexpression by means of the GAL4 transcription factor, the expression of which is controlled by a constitutive strong promoter.
# The different constructs were produced either by PCR amplification on genomic DNA of HeLa cells, or by RT-PCR on total RNAs of L428 human cells. The amplified PCR fragments are digested with the HindIII/EcoRI restriction enzymes and then cloned into the vector pcDNA3.1. The DH5a strain of Escherichia coli is electroporated and then cultured on a solid medium (2YT+agar+ampicillin). The plasmid DNA from different clones is then prepared and sequenced for verification. The constructs are then prepared using the QIAfilter Plasmid Midi kit (QIAGEN) and stored at −20° C.
# The HeLa cells (established tumour line, ATCC CCL-2.2) are cultured in a 6-well plate in complete medium [(DMEM (1×)+Glutamax+4.5 g/L glucose without pyruvate+1× penicillin/streptomycin+1 mM Na-pyruvate+10% calf serum] and placed in an incubator at 37° C. and 5% CO2.
# The cells are transfected when they are at 50% confluence. […]
# 10-15 μg of total RNAs is then analysed by Northern blot on 15% acrylamide gel [solution of acrylamide/40% bis-acrylamide, ratio 19:1], 7M urea in TBE 1×. […]
sequence,measurement,value
MEMALMVAQTRKGKSVV (listed as Homo sapiens) [HsmiPEP155],expression of HsmiR155 (relative expression of Pre-miR155),increases
